Results: ChEMBL document CHEMBL5247653, “Discovery of Clinical Candidate ACT-777991, a Potent CXCR3 Antagonist for Antigen-Driven and Inflammatory Pathologies” (J Med Chem, 2023)
In brackets after ≈: the same amount, converted by molar mass. Activity calls are given as the source filed them. The rule behind the calls is not given here.

Legend:
[1] = Half life in Beagle dog at 2.5 mg/kg,iv or 2.5 mg/kg, po; assay type: ADME, organism-based, Canis lupus familiaris; settings: in vivo
Cytochrome P450 2D6 = Cytochrome P450 2D6 (Homo sapiens, UniProt P10635); test: Time dependent inhibition of CYP2D6 (unknown origin); assay type: ADME
Cytochrome P450 2D6, sequence (P10635 whole entry): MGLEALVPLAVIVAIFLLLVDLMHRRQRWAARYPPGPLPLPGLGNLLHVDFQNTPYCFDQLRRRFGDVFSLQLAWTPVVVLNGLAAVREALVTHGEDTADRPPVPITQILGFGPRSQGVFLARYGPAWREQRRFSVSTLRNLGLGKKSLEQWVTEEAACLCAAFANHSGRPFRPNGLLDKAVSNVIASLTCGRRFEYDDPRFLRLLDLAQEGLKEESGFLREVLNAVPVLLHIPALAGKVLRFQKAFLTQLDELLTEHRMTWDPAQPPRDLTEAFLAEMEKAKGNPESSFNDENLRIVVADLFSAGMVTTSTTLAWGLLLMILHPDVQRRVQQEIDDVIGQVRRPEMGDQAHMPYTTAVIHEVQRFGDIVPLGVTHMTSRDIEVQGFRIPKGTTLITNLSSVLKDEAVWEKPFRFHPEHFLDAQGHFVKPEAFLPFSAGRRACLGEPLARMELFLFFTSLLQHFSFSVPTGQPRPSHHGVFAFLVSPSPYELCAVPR

[2] = Oral bioavailability in Wistar rat at 3 mg/kg; assay type: ADME, organism-based; settings: in vivo
[3] = Solubility of compound in FaSSIF at 37 degreeC; assay type: ADME
[4] = In vivo inhibition of hERG in iv dosed dog assessed as change in QRS interval; assay type: toxicity, organism-based, Canis lupus familiaris
[5] = Metabolic stability in rat liver microsomes assessed as intrinsic clearance at 1 uM and measured upto 15 mins in presence of NADPH regenerating system by LC-MS/MS analysis; assay type: ADME, Microsome; settings: read-out: CLH
[6] = target: C-C chemokine receptor type 7 (Homo sapiens) (UniProt P32248); test: Binding affinity to CCR7 (unknown origin) at 10 uM by radioligand binding assay
C-C chemokine receptor type 7 (Homo sapiens), sequence (P32248 whole entry): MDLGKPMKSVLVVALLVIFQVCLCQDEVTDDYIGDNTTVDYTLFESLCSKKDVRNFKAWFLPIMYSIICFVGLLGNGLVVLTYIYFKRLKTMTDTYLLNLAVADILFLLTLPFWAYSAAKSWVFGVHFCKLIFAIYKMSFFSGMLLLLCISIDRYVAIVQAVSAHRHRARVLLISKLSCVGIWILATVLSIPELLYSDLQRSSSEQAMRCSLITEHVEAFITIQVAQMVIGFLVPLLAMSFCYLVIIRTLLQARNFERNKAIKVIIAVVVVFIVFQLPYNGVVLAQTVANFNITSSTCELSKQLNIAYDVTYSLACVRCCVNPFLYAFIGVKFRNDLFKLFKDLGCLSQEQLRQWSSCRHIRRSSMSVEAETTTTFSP

[7] = Tmax in Beagle dog at 2.5 mg/kg,iv or 2.5 mg/kg, po; assay type: ADME, organism-based, Canis lupus familiaris; settings: in vivo
[8] = Unbound clearance in Wistar rat plasma at 0.5 mg/kg, iv; assay type: ADME, organism-based; settings: in vivo
[9] = Volume of distribution at steady state in Beagle dog at 2.5 mg/kg,iv or 2.5 mg/kg, po; assay type: ADME, organism-based, Canis lupus familiaris; settings: in vivo, read-out: Vdss
[10] = Metabolic stability in human liver microsomes assessed as M3 metabolite formation at 1 uM and measured upto 15 mins in presence of NADPH regenerating system by LC-MS/MS analysis; assay type: ADME, Microsome; settings: 0.25 h
[11] = target: T1, C-X-C chemokine receptor type 3 (Mus musculus) (UniProt O88410); test: In vivo antagonist activity at CXCR3 in LPS-induced DBA/1 mouse model assessed as reduction in mouse CXCL10-mediated chemotaxis in CD8+ T cells at 0.06 microg/g, po bid preincubated for 3 days followed by LPS stimulation for 30 mins and measured after 3 days by flow cytometry; assay type: functional, organism-based; set-up: scale not given: the % may be the effect or the level left; settings: T-cell, dose 0.06 µg/g, time 6.0 day
T1 sequence (whole entry): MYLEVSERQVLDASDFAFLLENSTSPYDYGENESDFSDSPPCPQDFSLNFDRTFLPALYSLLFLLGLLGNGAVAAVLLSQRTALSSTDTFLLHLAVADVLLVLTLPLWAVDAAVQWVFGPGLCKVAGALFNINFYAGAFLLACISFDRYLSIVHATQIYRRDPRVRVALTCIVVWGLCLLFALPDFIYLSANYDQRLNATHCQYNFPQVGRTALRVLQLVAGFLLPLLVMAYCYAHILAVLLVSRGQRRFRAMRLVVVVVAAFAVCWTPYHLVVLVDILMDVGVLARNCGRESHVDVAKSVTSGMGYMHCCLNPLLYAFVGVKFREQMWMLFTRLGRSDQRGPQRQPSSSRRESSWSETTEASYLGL

[12] = target: T2, C-X-C chemokine receptor type 3 (Homo sapiens, UniProt P49682); test: Antagonist activity at human CXCR3 expressed in CHO-K1 cells assessed as reduction in CXCL11 induced calcium flux by FLIPR method; assay type: cell-based
T2 sequence (P49682 whole entry): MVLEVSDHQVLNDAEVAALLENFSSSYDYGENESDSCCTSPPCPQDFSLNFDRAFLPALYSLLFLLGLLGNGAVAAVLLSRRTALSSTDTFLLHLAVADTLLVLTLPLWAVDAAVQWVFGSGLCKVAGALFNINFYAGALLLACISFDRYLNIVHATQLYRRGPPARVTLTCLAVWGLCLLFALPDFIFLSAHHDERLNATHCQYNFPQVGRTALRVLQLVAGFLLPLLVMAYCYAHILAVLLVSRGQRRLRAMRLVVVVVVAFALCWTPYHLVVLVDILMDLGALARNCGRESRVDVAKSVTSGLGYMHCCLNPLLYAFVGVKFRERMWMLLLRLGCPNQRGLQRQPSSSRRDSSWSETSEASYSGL

[13] = In vivo inhibition of hERG in dog assessed as increase in QTc interval at 24 ug/ml, iv; assay type: toxicity, organism-based, Canis lupus familiaris; settings: at 24 µg/mL
[14] = Protein binding in rat plasma assessed as fraction unbound at 20 ug/ml using 14C-labeled ligand by rapid equilibrium dialysis; assay type: ADME, cell-free; settings: at 20 µg/mL
[15] = target: Chemerin-like receptor 1 (Homo sapiens) (UniProt Q99788); test: Binding affinity to ChemR23 (unknown origin) at 10 uM by radioligand binding assay
Chemerin-like receptor 1 (Homo sapiens), sequence (Q99788 whole entry): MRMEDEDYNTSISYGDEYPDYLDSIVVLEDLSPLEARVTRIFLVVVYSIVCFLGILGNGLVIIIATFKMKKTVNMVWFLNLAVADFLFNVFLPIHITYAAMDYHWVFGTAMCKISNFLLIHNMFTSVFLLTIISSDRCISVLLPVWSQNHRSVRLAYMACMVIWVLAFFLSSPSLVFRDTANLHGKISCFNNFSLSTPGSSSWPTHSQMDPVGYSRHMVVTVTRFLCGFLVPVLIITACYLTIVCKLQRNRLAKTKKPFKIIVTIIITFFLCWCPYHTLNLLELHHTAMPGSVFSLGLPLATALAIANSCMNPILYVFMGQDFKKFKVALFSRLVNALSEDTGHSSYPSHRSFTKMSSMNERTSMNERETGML

[16] = In vivo inhibition of hERG in guinea pig assessed as increase in QTc interval at 27 ug/ml, iv; assay type: toxicity, organism-based, Cavia porcellus; settings: at 27 µg/mL
[17] = Volume of distribution at steady state in Cynomolgus monkey at 1.0 mg/kg,iv or 1.25 mg/kg, po; assay type: ADME, organism-based, Macaca fascicularis; settings: in vivo, read-out: Vdss
NIH3T3 = test: Phototoxicity in BALB/c mouse 3T3 cells upto 100 ug/ml in presence of irradiation; assay type: toxicity, cell-based; settings: dose < 100 µg/ml
[18] = Cmax in LPS-induced DBA/1 mouse plasma at 0.06 microg/g, po bid preincubated for 3 days followed by LPS stimulation for 30 mins and measured after 72 hrs by flow cytometry; assay type: ADME, organism-based; set-up: time 6 day, dose 0.06 µg/g, route po; settings: 0.06 µg/g
[19] = Metabolic stability in rat hepatocyte assessed as M3 metabolite formation at 1 uM and measured upto 15 mins in presence of NADPH regenerating system by LC-MS/MS analysis; assay type: ADME, cell-based; settings: hepatocytes, 0.25 h
[20] = Apparent permeability across apical to basolateral side in dog MDCK-II cells; assay type: ADME, cell-based, Canis lupus familiaris
[21] = target: T2, C-X-C chemokine receptor type 3; test: Antagonist activity at CXCR3 in human whole blood assessed as receptor internalization incubated for 30 mins in presence of CXCL10 by flow cytometric analysis; assay type: tissue-based
[22] = target: N-formyl peptide receptor 2 (Homo sapiens) (UniProt P25090); test: Binding affinity to FPR2 (unknown origin) at 10 uM by radioligand binding assay
N-formyl peptide receptor 2 (Homo sapiens), sequence (P25090 whole entry): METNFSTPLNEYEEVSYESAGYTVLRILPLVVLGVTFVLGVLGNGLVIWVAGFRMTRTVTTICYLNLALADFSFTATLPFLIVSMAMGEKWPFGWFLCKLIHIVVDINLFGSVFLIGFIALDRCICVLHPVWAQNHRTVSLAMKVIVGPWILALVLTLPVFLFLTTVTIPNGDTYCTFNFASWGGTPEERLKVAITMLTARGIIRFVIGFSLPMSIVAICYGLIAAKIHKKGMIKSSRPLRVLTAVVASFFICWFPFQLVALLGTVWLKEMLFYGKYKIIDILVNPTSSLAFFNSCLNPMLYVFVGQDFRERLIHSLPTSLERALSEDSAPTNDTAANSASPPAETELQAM

[23] = AUC (0 to last) in Cynomolgus monkey at 1.0 mg/kg,iv or 1.25 mg/kg, po; assay type: ADME, organism-based, Macaca fascicularis; set-up: dose 1 mg/kg, route iv; settings: in vivo
Cytochrome P450 2C9 = Cytochrome P450 2C9 (Homo sapiens, UniProt P11712); test: Competitive inhibition of CYP2C9 (unknown origin); assay type: ADME
Cytochrome P450 2C9, sequence (P11712 whole entry): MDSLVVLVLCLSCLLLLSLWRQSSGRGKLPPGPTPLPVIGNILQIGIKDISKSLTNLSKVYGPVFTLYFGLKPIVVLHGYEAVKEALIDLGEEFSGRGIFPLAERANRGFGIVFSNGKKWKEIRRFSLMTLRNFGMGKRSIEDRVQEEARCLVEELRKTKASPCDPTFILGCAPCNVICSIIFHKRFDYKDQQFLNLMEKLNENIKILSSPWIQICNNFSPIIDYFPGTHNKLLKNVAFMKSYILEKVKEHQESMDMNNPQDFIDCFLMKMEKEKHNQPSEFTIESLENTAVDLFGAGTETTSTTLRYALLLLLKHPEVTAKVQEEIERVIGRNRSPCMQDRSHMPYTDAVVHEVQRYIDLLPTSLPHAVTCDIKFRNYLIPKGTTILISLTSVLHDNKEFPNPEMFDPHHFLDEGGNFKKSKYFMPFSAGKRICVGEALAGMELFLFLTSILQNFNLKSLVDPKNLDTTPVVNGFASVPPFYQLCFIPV

[24] = target: C-X-C chemokine receptor type 3 (Rattus norvegicus, UniProt Q9JII9); test: Antagonist activity at CXCR3 in Wistar rat whole blood assessed as receptor internalization incubated for 30 mins in presence of CXCL10 by flow cytometric analysis; assay type: tissue-based
C-X-C chemokine receptor type 3 (Rattus norvegicus, UniProt Q9JII9), sequence (Q9JII9 whole entry): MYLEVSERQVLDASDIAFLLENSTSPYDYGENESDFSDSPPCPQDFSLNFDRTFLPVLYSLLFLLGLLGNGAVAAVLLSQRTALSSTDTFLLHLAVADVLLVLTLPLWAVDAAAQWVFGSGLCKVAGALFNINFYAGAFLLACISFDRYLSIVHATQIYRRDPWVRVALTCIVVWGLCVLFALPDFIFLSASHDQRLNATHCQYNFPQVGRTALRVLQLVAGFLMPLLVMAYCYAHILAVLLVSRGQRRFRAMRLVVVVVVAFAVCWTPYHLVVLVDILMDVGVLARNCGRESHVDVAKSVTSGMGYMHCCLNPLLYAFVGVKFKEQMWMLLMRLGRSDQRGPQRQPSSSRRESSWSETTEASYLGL

[25] = Lipophilicity, log D of compound; assay type: physicochemical; settings: octanol/water
[26] = Total clearance in Beagle dog plasma at 1 mg/kg, iv; assay type: ADME, organism-based, Canis lupus familiaris
[27] = AUC (0 to last) in Wistar rat at 3 mg/kg,iv or 3 mg/kg, po; assay type: ADME, organism-based; set-up: dose 3 mg/kg, route iv; settings: in vivo
Cytochrome P450 3A4 = Cytochrome P450 3A4 (Homo sapiens, UniProt P08684); test: Time dependent inhibition of CYP3A4 (unknown origin); assay type: ADME
Cytochrome P450 3A4, sequence (P08684 whole entry): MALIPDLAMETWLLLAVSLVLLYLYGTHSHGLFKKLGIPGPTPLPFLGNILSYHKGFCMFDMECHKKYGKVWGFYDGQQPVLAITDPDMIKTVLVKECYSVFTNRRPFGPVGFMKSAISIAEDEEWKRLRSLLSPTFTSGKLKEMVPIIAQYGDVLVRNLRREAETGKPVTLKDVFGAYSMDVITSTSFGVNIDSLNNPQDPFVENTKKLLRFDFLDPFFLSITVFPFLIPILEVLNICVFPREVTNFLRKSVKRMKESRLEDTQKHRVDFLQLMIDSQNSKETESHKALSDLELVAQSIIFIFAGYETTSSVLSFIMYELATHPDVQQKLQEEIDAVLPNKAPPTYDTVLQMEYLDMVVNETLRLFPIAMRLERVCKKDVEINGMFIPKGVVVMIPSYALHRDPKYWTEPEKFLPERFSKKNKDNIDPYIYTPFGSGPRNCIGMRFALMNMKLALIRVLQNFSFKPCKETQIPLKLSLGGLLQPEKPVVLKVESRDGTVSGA

[28] = Genotoxicity in Salmonella typhimurium TA98 at 5000 ug; assay type: toxicity; settings: salmonella enterica subsp. enterica serovar typhimurium; dose 5000 µg

Work on `Cc1ncn(CC(=O)N2CCN(c3sc(C(F)(F)F)nc3-c3cnc(C(F)(F)F)nc3)C[C@H]2CCO)n1` yielded a half-life [1] of 5.3 h, an IC50 (Cytochrome P450 2D6) of over 50000 nM and a bioavailability [2] of 80%. The solubility [3] was 718 µg/mL (≈ 1300 µM), the “inhibition (INH)” value [4] was “Non-Toxic” and the microsomal CLint at 1 µM [5] was under 10 µL/min/mg. For the same compound, the Activity [6] was “inactive”, the Tmax [7] was 0.4 h and the CL free [8] was 156 mL/min/kg. The Vd [9] was 1.5 L/kg, the Stability [10] was “Unstable” and the Activity [11] was 55%. The IC50 [12] was 5.3 nM, the “inhibition (INH)” value [13] was “Toxic” and the fraction unbound at 20 ug/ml [14] was 0.12. For the same compound, the Activity [15] was “inactive”, the “inhibition (INH)” value [16] was “Toxic” and the Vd [17] was 1.3 L/kg. The Activity (NIH3T3) was “Non-Toxic”, the Cmax [18] was 559 ng/mL and the Stability [19] was “Unstable”. The Papp A→B [20] was 1.5 ×10⁻⁶ cm/s, the IC50 [21] was 56 nM and the Activity [22] was “inactive”. The AUC(0-t) [23] was 3610 ng·h/mL, the IC50 (Cytochrome P450 2C9) was over 50000 nM and the IC50 [24] was 291 nM. It also gave a logD [25] of 2.3, a clearance [26] of 5 mL/min/kg and an AUC(0-t) [27] of 4210 ng·h/mL. The IC50 (Cytochrome P450 3A4) was over 50000 nM and the Activity [28] was “Non-Toxic”.
